Entries after “also recorded” stand apart in the source; their conditions may differ. Like-named read-outs stand apart in the source and are kept apart here.
What was measured:
[1] = cited from earlier work
[2] = 2 minutes after iv bolus of 14 mg (approximately 0.2 mg/kg); cited from earlier work
[3] = cited from earlier work; remark: listed apart in the source
[4] = tested on: experienced hallucinogen-using volunteers; conditions: 0.3 mg/kg iv at half-hour intervals 4 times in a morning; cited from earlier work
[5] = target: serotonin 5-HT2A receptor (Homo sapiens, UniProt P28223); conditions: similar to LSD and psilocybin; cited from earlier work
serotonin 5-HT2A receptor, sequence (P28223 whole entry): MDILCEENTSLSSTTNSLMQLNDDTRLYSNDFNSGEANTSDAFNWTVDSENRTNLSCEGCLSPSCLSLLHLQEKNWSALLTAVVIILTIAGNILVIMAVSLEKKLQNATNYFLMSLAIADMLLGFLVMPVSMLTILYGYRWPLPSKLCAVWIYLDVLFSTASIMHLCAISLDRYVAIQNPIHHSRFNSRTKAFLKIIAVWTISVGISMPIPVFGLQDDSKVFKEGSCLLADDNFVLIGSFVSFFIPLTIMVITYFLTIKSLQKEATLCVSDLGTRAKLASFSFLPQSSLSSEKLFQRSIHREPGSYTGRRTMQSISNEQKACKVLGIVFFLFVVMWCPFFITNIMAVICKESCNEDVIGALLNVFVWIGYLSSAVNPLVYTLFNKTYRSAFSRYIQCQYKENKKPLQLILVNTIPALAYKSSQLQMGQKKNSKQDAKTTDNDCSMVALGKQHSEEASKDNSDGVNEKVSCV

healthy volunteers = conditions: cited from earlier work
[6] = tested on: healthy subjects with previous hallucinogen experience; conditions: cited from earlier work
healthy subjects [7] = test: Example 1 clinical study: adverse effects and list of complaints
Procedure: Identical placebo (saline) was prepared.
Adverse effects and list of complaints: The list of complaints (LC) consists of 66 items offering a global score measuring physical and general discomfort (Zerssen, 1976). The LC list is administered before and at the end of the session with reference to complaints throughout the entire session.

[8] = 0.3 mg/kg iv, cited from earlier work
5-HT1A receptor = target: T1, 5-HT1A receptor (Homo sapiens, UniProt P08908); conditions: sub-hallucinogenic dose of 0.1 mg/kg DMT, twelve subjects; cited from earlier work
T1 construct: host or cells: human volunteers (in vivo)
T1 sequence (P08908 1-422): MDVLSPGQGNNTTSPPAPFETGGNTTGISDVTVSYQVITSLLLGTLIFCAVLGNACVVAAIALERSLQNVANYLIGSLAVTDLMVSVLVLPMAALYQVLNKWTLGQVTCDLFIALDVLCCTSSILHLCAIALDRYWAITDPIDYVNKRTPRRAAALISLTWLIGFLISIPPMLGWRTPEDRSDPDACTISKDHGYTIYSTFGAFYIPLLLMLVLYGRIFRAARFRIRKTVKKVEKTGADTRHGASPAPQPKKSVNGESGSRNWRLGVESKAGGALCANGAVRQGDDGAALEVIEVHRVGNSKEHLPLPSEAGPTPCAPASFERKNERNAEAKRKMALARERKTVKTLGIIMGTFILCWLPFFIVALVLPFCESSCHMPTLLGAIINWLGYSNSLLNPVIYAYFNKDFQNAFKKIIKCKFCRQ

healthy subjects [9] = test: Example 1 clinical study: subjective effects rating over time
[10] = 0.4 mg/kg iv bolus, cited from earlier work
healthy subjects [11] = test: Example 1 clinical study: 5D-ASC scale
[12] = perfusion with placebo bolus, two subjects

## CN(C)CCc1c[nH]c2ccccc12 [DMT, N,N-dimethyltryptamine]
[1]; 10 minutes before start of second dose, 110 minutes after stopping the first infusion
  Plasma levels of DMT: 5 ± 3 ng/mL
[1]; high dose: bolus 0.3 mg/kg, then infusion 0.02 mg/kg/min
  Mean plasma levels of DMT: 60 ± 28 ng/mL
[1]; low dose: bolus 0.2 mg/kg over 5 minutes, then infusion 0.015 mg/kg/min over 84 minutes
  Mean plasma levels of DMT: 43 ± 26 ng/mL
[2]
  DMT blood concentrations: approximately 56 ng/mL
[3]; administered parenterally
  duration of action: less than 20 min
[3]; oral, without MAO inhibition
  activity when administered orally: inactive
[4]
  Tolerance to the subjective effects of DMT: did not occur
[5]
  interaction with the serotonin 5-HT2A receptor: interacts
Healthy volunteers; after stopping infusion
  time within which subjective effects subsided: ≤ 20 min
Healthy volunteers; among the 15 subjects
  subjects who stopped after the first DMT dose due to adverse responses: 3
Healthy volunteers; high dose
  persons reporting visual hallucinations: all participants
Healthy volunteers; in vivo
  time for adverse effects to vanish from stopping the infusion: within a few minutes
Healthy volunteers; low dose, 15 healthy volunteers
  persons reporting visual hallucinations: seven
Healthy volunteers; seven days and 12 months after the experiments
  lasting complaints at interviews: no lasting complaints
Healthy volunteers; subjects who received DMT
  subjects reporting tiredness and headache in the evening of the experiment: 10 out of 13
[6]; iv bolus
  threshold dose for hallucinogenic effects: 0.2 mg/kg
  time to peak of effects after injection: ≤ 2 min
  time within which effects resolved: 20 to 30 min
[6]; lower doses (0.05, 0.1 mg/kg) iv bolus
  hallucinogenic effect: not hallucinogenic
[6]; two higher doses of 0.2 and 0.4 mg/kg iv bolus
  hallucinogenic effect: fully hallucinogenic
Healthy subjects [7]; Example 1
  relevant adverse effects: did not result in relevant adverse effects
  safety of administration: safe
Healthy subjects [7]; perfusion rate, Example 1
  highest dose still well-tolerated by the study population: 1 mg of DMT/min
Healthy subjects [7]; perfusion without bolus, two subjects
  reported complaints: lack of appetite; also recorded: tiredness, palpitations, cold feet, and dry mouth
[8]; after 2 minutes
  blood DMT levels: ~70 ng/mL
[8]; after 5 minutes
  blood DMT levels: ~50 ng/mL
[8]; after 10 minutes
  blood DMT levels: ~30 ng/mL
[8]; after 15 minutes
  blood DMT levels: ~18 ng/mL
5-HT1A receptor
  enhancement of DMT effects by pindolol pre-treatment: two to three times
Healthy subjects [9]; 90 minutes perfusion
  duration of the psychedelic state: approximately 90 minutes
Healthy subjects [9]; available data from Example 1
  time to new steady state after starting the perfusion: approximately 20 minutes
Healthy subjects [9]; bolus and perfusion, 2-5 minutes after the bolus
  ratings of bad drug effects and anxiety: small increases
Healthy subjects [9]; bolus and perfusion, mean in three subjects
  ratings of any drug effects: maximal within seconds
Healthy subjects [9]; bolus and perfusion, three subjects
  ratings of good drug effects: maximal immediately after the DMT bolus administration and up to 30 minutes
Healthy subjects [9]; perfusion with placebo bolus
  bad drug effects and anxiety ratings: no bad drug effects and no anxiety
  time over which good drug effects steadily increased after start of the perfusion: 30 min
  time to disappearance of good drug effects after stopping the perfusion: less than 10 minutes
Healthy subjects [9]; perfusion with placebo bolus, dose used in the example
  description of the DMT experience: overall similar to LSD at a moderate dose of 0.05-0.1 mg LSD base
Healthy subjects [9]; [12]
  time over which any drug effects steadily increased after starting the perfusion: 30 min
  time to disappearance of effect after perfusion ended at 90 minutes: less than 10 minutes
[10]; 2 minutes
  Blood levels of DMT base: ~90 ng/mL
[10]; 5 minutes
  Blood levels of DMT base: ~42 ng/mL
[10]; 10 minutes
  Blood levels of DMT base: ~28 ng/mL
[10]; 15 minutes
  Blood levels of DMT base: ~17 ng/mL
[10]; 30 minutes
  Blood levels of DMT base: ~5 ng/mL
Healthy subjects [11]; bolus and perfusion
  Anxiety (5D-ASC): almost absent
Healthy subjects [11]; bolus and perfusion compared with perfusion alone, mean in three subjects
  5D-ASC scores: more pronouncedly increased 5D-ASC scores
Healthy subjects [11]; perfusion with placebo bolus
  5D-ASC ratings: increased ratings of Oceanic Boundlessness and lower ratings in Anxious Ego-Dissolution and Visionary Restructuralization

Reference: US20220040150A1, “I[…] ADMI[…] FOR DMT-ASSISTED PSYCHOTHERAPY” (Universitatsspital Basel, priority 2020, published 2022)
